The structures appear in SMILES notation.

For the test, the target named is human Nav 1.8 (Homo sapiens, UniProt Q9Y5Y9). Kind of test: E-VIPR assay detecting and measuring Nav inhibition properties. Format: cell-based. Particulars: HEK cells expressing a truncated form of human Nav 1.8; compound numbers without "*" (not marked as run in the presence of human serum); read-out: measured IC50 value in the E-VIPR Assay. The method in brief: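 Nav inhibition was read by E-VIPR: cells were electrically stimulated while coumarin/oxonol FRET emissions were recorded. Cells were HEK expressing a truncated human Nav 1.8 and co-transduced with KIR2.1, and were assayed in 25% final human serum.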
Chain of human Nav 1.8 (Q9Y5Y9 126-399 limits assumed): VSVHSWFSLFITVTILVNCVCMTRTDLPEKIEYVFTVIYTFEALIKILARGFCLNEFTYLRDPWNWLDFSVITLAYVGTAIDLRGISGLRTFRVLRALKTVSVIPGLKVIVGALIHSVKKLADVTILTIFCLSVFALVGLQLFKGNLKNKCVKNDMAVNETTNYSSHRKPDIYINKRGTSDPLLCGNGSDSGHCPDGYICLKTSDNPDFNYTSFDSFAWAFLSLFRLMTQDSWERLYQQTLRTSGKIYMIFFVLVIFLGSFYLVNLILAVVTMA
Chain of human Nav 1.8 (Q9Y5Y9 660-890 limits assumed): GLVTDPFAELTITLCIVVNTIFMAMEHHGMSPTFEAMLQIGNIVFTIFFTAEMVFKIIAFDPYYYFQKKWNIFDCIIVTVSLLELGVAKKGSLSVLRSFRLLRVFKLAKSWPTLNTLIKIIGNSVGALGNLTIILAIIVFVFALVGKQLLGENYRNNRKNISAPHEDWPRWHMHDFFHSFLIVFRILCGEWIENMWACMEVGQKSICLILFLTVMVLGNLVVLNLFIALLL
Chain of human Nav 1.8 (Q9Y5Y9 1148-1722 limits assumed): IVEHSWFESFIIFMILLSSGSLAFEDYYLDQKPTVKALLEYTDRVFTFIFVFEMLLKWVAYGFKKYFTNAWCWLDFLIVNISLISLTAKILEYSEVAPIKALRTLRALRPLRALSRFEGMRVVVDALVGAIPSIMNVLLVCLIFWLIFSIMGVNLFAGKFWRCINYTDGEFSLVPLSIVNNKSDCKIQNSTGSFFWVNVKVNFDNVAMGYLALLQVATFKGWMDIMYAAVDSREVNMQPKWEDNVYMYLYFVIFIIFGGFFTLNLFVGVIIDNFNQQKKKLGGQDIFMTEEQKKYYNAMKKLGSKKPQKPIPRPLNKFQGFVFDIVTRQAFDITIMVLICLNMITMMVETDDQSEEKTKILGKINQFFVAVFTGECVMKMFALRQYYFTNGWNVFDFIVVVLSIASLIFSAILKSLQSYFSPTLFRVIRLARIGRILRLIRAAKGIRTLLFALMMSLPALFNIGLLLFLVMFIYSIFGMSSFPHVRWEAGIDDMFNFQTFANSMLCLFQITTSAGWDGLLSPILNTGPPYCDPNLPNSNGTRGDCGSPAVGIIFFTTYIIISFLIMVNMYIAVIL
On to `C[C@H]1[C@@H](c2ccc(F)c(F)c2OCCN2CC3CCC2CO3)[C@H](C(=O)Nc2ccnc(C(N)=O)c2)O[C@@]1(C)C(F)(F)F` (stereo partly drawn) [Compound 124, 4-((2R,3S,4S,5R)-3-(2-(2-(2-oxa-5-azabicyclo[2.2.2]octan-5-yl)ethoxy)-3,4-difluorophenyl)-4,5-dimethyl-5-(trifluoromethyl)tetrahydrofuran-2-carboxamido)picolinamide], for which the concentration for half-maximal inhibition (IC50) is less than 0.01 µM.

For the molecule `C[C@H]1[C@@H](c2ccc(F)c(F)c2OCCCO)[C@H](C(=O)Nc2ccnc(C(N)=O)c2)O[C@@]1(C)C(F)(F)F` [Compound 72, 4-((2R,3S,4S,5R)-3-(3,4-difluoro-2-(3-hydroxypropoxy)phenyl)-4,5-dimethyl-5-(trifluoromethyl)tetrahydrofuran-2-carboxamido)picolinamide], the 50% inhibitory concentration (IC50) is less than 0.01 µM.

As to `COc1c([C@H]2[C@H](C(=O)Nc3ccnc(C(=O)NC[C@@H]4CC(F)(F)CN4)c3)O[C@@](C)(C(F)(F)F)[C@H]2C)ccc(F)c1F` [Compound 226, 4-((2R,3S,4S,5R)-3-(3,4-difluoro-2-methoxyphenyl)-4,5-dimethyl-5-(trifluoromethyl)tetrahydrofuran-2-carboxamido)-N-(((S)-4,4-difluoropyrrolidin-2-yl)methyl)picolinamide], the concentration for half-maximal inhibition (IC50) is 0.1 to 1 µM.

Take `C[C@H]1[C@@H](c2ccc(F)c(F)c2OCCO)[C@H](C(=O)Nc2ccnc(C(N)=O)c2)O[C@@]1(C)C(F)(F)F` [Compound 5, 4-((2R,3S,4S,5R)-3-(3,4-difluoro-2-(2-hydroxyethoxy)phenyl)-4,5-dimethyl-5-(trifluoromethyl)tetrahydrofuran-2-carboxamido) picolinamide]: the IC50 was less than 0.01 µM.

For `C[C@@H](Oc1c([C@H]2[C@H](C(=O)Nc3ccnc(C(N)=O)c3)O[C@@](C)(C(F)(F)F)[C@H]2C)ccc(F)c1F)C1COC1` [Compound 157, 4-((2R,3S,4S,5R)-3-(3,4-difluoro-2-((R)-1-(oxetan-3-yl)ethoxy)phenyl)-4,5-dimethyl-5-(trifluoromethyl)tetrahydrofuran-2-carboxamido)picolinamide], the IC50 was less than 0.01 µM.

As for `COc1c([C@H]2[C@H](C(=O)Nc3ccnc(C(=O)N4CC[C@@H](O)C4)c3)O[C@@](C)(C(F)(F)F)[C@H]2C)ccc(F)c1F` [Compound 220, (2R,3S,4S,5R)-3-(3,4-difluoro-2-methoxyphenyl)-N-(2-((R)-3-hydroxypyrrolidine-1-carbonyl)pyridin-4-yl)-4,5-dimethyl-5-(trifluoromethyl)tetrahydrofuran-2-carboxamide], the 50% inhibitory concentration (IC50) was less than 0.01 µM.

With `C[C@H]1[C@@H](c2ccc(F)c(F)c2O[C@@H]2CCN(C)C2)[C@H](C(=O)Nc2ccnc(C(N)=O)c2)O[C@@]1(C)C(F)(F)F` (single isomer, unassigned) [Compound 102, rel-4-((2R*,3S*,4S*,5R*)-3-(3,4-difluoro-2-((-1-methylpyrrolidin-3-yl)oxy)phenyl)-4,5-dimethyl-5-(trifluoromethyl)tetrahydrofuran-2-carboxamido)picolinamide], the IC50 lay in the range of 0.01 to 0.1 µM.

For the molecule `COc1c([C@H]2[C@H](C(=O)Nc3ccnc(C(=O)N4CCNCC4)c3)O[C@@](C)(C(F)(F)F)[C@H]2C)ccc(F)c1F` [Compound 224, (2R,3S,4S,5R)-3-(3,4-difluoro-2-methoxyphenyl)-4,5-dimethyl-N-(2-(piperazine-1-carbonyl)pyridin-4-yl)-5-(trifluoromethyl)tetrahydrofuran-2-carboxamide], the IC50 was less than 0.01 µM.

With `COc1c([C@H]2[C@H](C(=O)Nc3ccnc(C(=O)N4CC5CC(C4)N5)c3)O[C@@](C)(C(F)(F)F)[C@H]2C)ccc(F)c1F` [Compound 239, (2R,3S,4S,5R)-N-(2-(3,6-diazabicyclo[3.1.1]heptane-3-carbonyl)pyridin-4-yl)-3-(3,4-difluoro-2-methoxyphenyl)-4,5-dimethyl-5-(trifluoromethyl)tetrahydrofuran-2-carboxamide], the IC50 is less than 0.01 µM.

Turning to `COc1c([C@H]2[C@H](C(=O)Nc3ccnc(C(=O)N4C[C@@H](C)N(C)C[C@H]4C)c3)O[C@@](C)(C(F)(F)F)[C@H]2C)ccc(F)c1F` [Compound 289, (2R,3S,4S,5R)-3-(3,4-difluoro-2-methoxyphenyl)-4,5-dimethyl-5-(trifluoromethyl)-N-(2-((2R,5R)-2,4,5-trimethylpiperazine-1-carbonyl)pyridin-4-yl)tetrahydrofuran-2-carboxamide], the 50% inhibitory concentration (IC50) was in the range of 0.01 to 0.1 µM.

Take `COc1c([C@@H]2[C@@H](C(=O)Nc3ccnc(C(N)=O)c3)O[C@](C)(C(F)(F)F)[C@@H]2C)ccc(F)c1CO` (single isomer, unassigned) [Compound 137]: the IC50 is no less than 1 µM.

Consider `COc1c([C@H]2[C@H](C(=O)Nc3cc(C(=O)N4CCN(C)CC4)ncc3C)O[C@@](C)(C(F)(F)F)[C@H]2C)ccc(F)c1F` [Compound 12, (2R,3S,4S,5R)-3-(3,4-difluoro-2-methoxyphenyl)-4,5-dimethyl-N-(5-methyl-2-(4-methylpiperazine-1-carbonyl)pyridin-4-yl)-5-(trifluoromethyl)tetrahydrofuran-2-carboxamide], for which the IC50 was in the range of 0.01 to 0.1 µM.

On to `COc1c([C@H]2[C@H](C(=O)Nc3ccnc(C(=O)N4CCN(C)CC4)n3)O[C@@](C)(C(F)(F)F)[C@H]2C)ccc(F)c1F` [Compound 11, (2R,3S,4S,5R)-3-(3,4-difluoro-2-methoxyphenyl)-4,5-dimethyl-N-(2-(4-methylpiperazine-1-carbonyl)pyrimidin-4-yl)-5-(trifluoromethyl)tetrahydrofuran-2-carboxamide], for which the IC50 fell in the range of 0.01 to 0.1 µM.

As for `CNC(=O)c1cc(NC(=O)[C@@H]2O[C@@](C)(C(F)(F)F)[C@@H](C)[C@H]2c2ccc(F)c(F)c2OCC2COC2)ccn1` [Compound 66], the IC50 is less than 0.01 µM.

As for `C[C@H]1[C@@H](c2ccc(F)c(F)c2OCC(C)(C)CO)[C@H](C(=O)Nc2ccnc(C(N)=O)c2)O[C@@]1(C)C(F)(F)F` [Compound 71, 4-((2R,3S,4S,5R)-3-(3,4-difluoro-2-(3-hydroxy-2,2-dimethylpropoxy)phenyl)-4,5-dimethyl-5-(trifluoromethyl)tetrahydrofuran-2-carboxamido)picolinamide], the half-inhibitory concentration (IC50) fell in the range of 0.1 to 1 µM.

In the case of `COc1c([C@H]2[C@H](C(=O)Nc3ccnc(C(=O)N4CCNCC4)n3)O[C@@](C)(C(F)(F)F)[C@H]2C)ccc(F)c1F` [Compound 19, (2R,3S,4S,5R)-3-(3,4-difluoro-2-methoxyphenyl)-4,5-dimethyl-N-(2-(piperazine-1-carbonyl)pyrimidin-4-yl)-5-(trifluoromethyl)tetrahydrofuran-2-carboxamide], the IC50 lay within 0.01 to 0.1 µM.

For `COc1c([C@@H]2[C@@H](C(=O)Nc3ccnc(C(N)=O)c3)O[C@@](C)(C(F)(F)F)[C@H]2C)ccc(OCC2CC2)c1F` (single isomer, unassigned) [Compound 143], the 50% inhibitory concentration (IC50) was 0.1 to 1 µM.

Consider `C=C(COC)COc1c([C@H]2[C@H](C(=O)Nc3ccnc(C(N)=O)c3)O[C@@](C)(C(F)(F)F)[C@H]2C)ccc(F)c1F` [Compound 135], for which the IC50 fell in the range of 0.01 to 0.1 µM.

With `COc1c([C@H]2[C@H](C(=O)Nc3ccnc(C(=O)N4CCN(C)[C@H](C)C4)c3)O[C@@](C)(C(F)(F)F)[C@H]2C)ccc(F)c1F` [Compound 288, (2R,3S,4S,5R)-3-(3,4-difluoro-2-methoxyphenyl)-N-(2-((R)-3,4-dimethylpiperazine-1-carbonyl)pyridin-4-yl)-4,5-dimethyl-5-(trifluoromethyl)tetrahydrofuran-2-carboxamide], the concentration for half-maximal inhibition (IC50) is less than 0.01 µM.

Take `CC=C(CO)COc1c([C@H]2[C@H](C(=O)Nc3ccnc(C(N)=O)c3)O[C@@](C)(C(F)(F)F)[C@H]2C)ccc(F)c1F` (single isomer, unassigned) [Compound 164, rel-4-((2R*,3S*,4S*,5R*)-3-(3,4-difluoro-2-((2-(hydroxymethyl)but-2-en-1-yl)oxy)phenyl)-4,5-dimethyl-5-(trifluoromethyl)tetrahydrofuran-2-carboxamido)picolinamide]: the half-maximal inhibitory concentration (IC50) was less than 0.01 µM.

In the case of `C[C@H]1[C@@H](c2ccc(F)c(F)c2OCCn2ccnc2)[C@H](C(=O)Nc2ccnc(C(N)=O)c2)O[C@@]1(C)C(F)(F)F` [Compound 45, 4-((2R,3S,4S,5R)-3-(2-(2-(1H-imidazol-1-yl)ethoxy)-3,4-difluorophenyl)-4,5-dimethyl-5-(trifluoromethyl)tetrahydrofuran-2-carboxamido)picolinamide], the IC50 is less than 0.01 µM.

As for `C[C@H]1[C@@H](c2ccc(F)c(F)c2OCC2(F)COC2)[C@H](C(=O)Nc2ccnc(C(N)=O)c2)O[C@@]1(C)C(F)(F)F` [Compound 64, 4-((2R,3S,4S,5R)-3-(3,4-difluoro-2-((3-fluorooxetan-3-yl)methoxy)phenyl)-4,5-dimethyl-5-(trifluoromethyl)tetrahydrofuran-2-carboxamido)picolinamide], the concentration for half-maximal inhibition (IC50) is less than 0.01 µM.

As for `CC(C)C(COc1c([C@H]2[C@H](C(=O)Nc3ccnc(C(N)=O)c3)O[C@@](C)(C(F)(F)F)[C@H]2C)ccc(F)c1F)=NO` [Compound 186, 4-((2R,3S,4S,5R)-3-(3,4-difluoro-2-(2-(hydroxyimino)-3-methylbutoxy)phenyl)-4,5-dimethyl-5-(trifluoromethyl)tetrahydrofuran-2-carboxamido)picolinamide], the IC50 is less than 0.01 µM.

Turning to `COc1c([C@H]2[C@H](C(=O)Nc3ccnc(C(=O)N4CC5CC(C4)O5)c3)O[C@@](C)(C(F)(F)F)[C@H]2C)ccc(F)c1F` [Compound 218, (2R,3S,4S,5R)-N-(2-(6-oxa-3-azabicyclo[3.1.1]heptane-3-carbonyl)pyridin-4-yl)-3-(3,4-difluoro-2-methoxyphenyl)-4,5-dimethyl-5-(trifluoromethyl)tetrahydrofuran-2-carboxamide], the 50% inhibitory concentration (IC50) is less than 0.01 µM.

On to `COc1c([C@H]2[C@H](C(=O)Nc3ccnc(C(=O)N4CC5CC(C4)N5C)c3)O[C@@](C)(C(F)(F)F)[C@H]2C)ccc(F)c1F` [Compound 278, (2R,3S,4S,5R)-3-(3,4-difluoro-2-methoxyphenyl)-4,5-dimethyl-N-(2-(6-methyl-3,6-diazabicyclo[3.1.1]heptane-3-carbonyl)pyridin-4-yl)-5-(trifluoromethyl)tetrahydrofuran-2-carboxamide], for which the half-maximal inhibitory concentration (IC50) was less than 0.01 µM.

For orientation: IC50 means the midpoint of a concentration-inhibition curve.

Values taken from patent US20250213555A1, “SUBSTITUTED TETRAHYDROFURAN ANALOGS AS MODULATORS OF SODIUM CHANNELS” (VERTEX PHARMACEUTICALS INCORPORATED, priority 2021, published 2025).
